# Data published in patent US11452704B2, “Prevention and treatment of muscle wasting with ketone supplementation” (UNIVERSITY OF SOUTH FLORIDA, priority 2017, dated 2022).
# What was measured:
# [1] = test system: cancer cachexia (VM-M3); test: Cancer cachexia (VM-M3), skeletal muscle weight as ratio to baseline bodyweight (Example 7); format: in vivo; conditions: ketone diester in standard diet food at 30% by weight; 21 days post cancer injection; vs cancer on standard diet; FIG. 6A-B
# Description: FIG. 6A depicts the difference in skeletal muscle weight following cancer cachexia administration (VM-M3) with control or ketone supplementation.
# FIG. 6B depicts the difference in skeletal muscle weight following cancer cachexia administration (VM-M3) with control or ketone supplementation.
# FIG. 6A-B depict weight matched animals who were split into 3 groups 1) Animals without cancer injected with vehicle on standard diet (Sham; n=11), 2) animals with cancer on standard diet (n=11), and 3) animals with cancer with ketone diester incorporated into the standard diet food at 30% by weight (n=11). Animals bodyweight was measured at baseline. Cancer groups were assessed in a validated model of cancer cachexia. At 21 days post vehicle or cancer injection, tissue were harvest and weighed. Skeletal Muscle weight was set as a ratio to baseline bodyweight to determine the differences in skeletal muscle tissue as compared to set pre-cancer timepoint.
# [2] = test system: anorexia induced by catabolic/atrophy/cachexic stimulus (LPS); test: LPS-induced anorexia, food intake (Example 5); format: in vivo; conditions: 10 mg/kg LPS i.p.; one-time dose 4 mL/kg intragastric gavage vs water; FIG. 4A-B
# Description: FIG. 4A depicts the difference in anorexia symptoms following Lipopolysaccharide administration with treatment with control or ketone supplementation.
# FIG. 4B depicts the difference in caloric intake following Lipopolysaccharide administration with treatment with control or ketone supplementation.
# FIG. 4A-B depicts weight matched animals who were administered 10 mg/kg LPS intraperitoneally. After intraperitoneal LPS injection, 4 mL/kg of water (n=4) or R/S 1,3 Butanediol Acetoacetate Diester (Ketone Diester; n=5) were intragastrically gavaged into animals. Food Intake was tracted to determine if a one-time does of Ketone Diester was able to reduce anorexia experiences post catabolic/atrophy/cachexic stimulus (10 mg/kg LPS intraperitoneally).
# [3] = test system: tissue catabolism/atrophy/cachexia that is induced by LPS; test: LPS-induced catabolism, pair fed animals, multiple treatments (Example 6); format: in vivo
# Description: FIG. 5A depicts the difference in bodyweight following Lipopolysaccharide administration with multiple treatments with control or ketone supplementation with calories controlled across groups.
# FIG. 5B depicts the difference in percent bodyweight following Lipopolysaccharide administration with multiple treatments with control or ketone supplementation with calories controlled across groups.
# FIG. 5A-B depicts weight matched animals who were administered 10 mg/kg LPS intraperitoneally. After intraperitoneal LPS injection, 4 mL/kg of water (n=4) or R/S 1,3 Butanediol Acetoacetate Diester (Ketone Diester; n=4) were intragastrically gavaged into animals. Animals were pair fed to ensure calories were equivalent between groups to remove influence of caloric intake on tissue catabolism/atrophy/cachexia. […] This effect was retained for a minimum of 2 days following catabolic/atrophy/cachexia stimulus (10 mg/kg LPS intraperitoneal). The ability of Ketone Diester to attenuate catabolism was independent of caloric intake/anorexia induced by LPS.
# [4] = test system: cancer induced tissue wasting (muscle and fat), VM-M3 model of metastatic cancer; test: VM-M3 model of metastatic cancer: muscle mass as ratio of total calories consumed (Example 2); format: in vivo, VM/Dk animals; conditions: with standard diet, vs standard diet or ketogenic diet; 21 days post-cancer implantation; FIG. 1
# Description: FIG. 1 depicts ratios of muscle mass to amount of calories consumed within a cancer cachexia VM-M3 modeling system, specifically with subjects having been fed standard diet, ketogenic diet, and ketone diester.
# Taking a model system of cancer induced tissue wasting (muscle and fat), R,S 1,3 butanediol diacetoacetate+standard diet, ketogenic diet, and standard diet were applied. VM/Dk animals were matched for sex, age, and bodyweight to ensure controlled groups. Animals were implanted with VM-M3 cell in the left flank to create the VM-M3 model of metastatic cancer. Once implanted, primary tumor forms at site of implantation, and then cells metastasize to all major organ systems that results in tissue wasting. Animals were harvested at 21 days post-cancer implantation to evaluate tissue wasting. […] This confirms that R,S 1,3 butanediol diacetoacetate is an anti-catabolic/anti-tissue wasting compound.
# [5] = test system: tissue catabolism/atrophy/cachexia that is induced by LPS; test: LPS-induced catabolism, single gavage, bodyweight tracked for 2 weeks (Example 4); format: in vivo, VM/Dk mice
# Description: FIG. 3A depicts acute percent bodyweight changes that accompany Lipopolysaccharide after treatment with control or ketone supplementation in VM/Dk mice.
# FIG. 3B depicts acute bodyweight changes that accompany Lipopolysaccharide after treatment with control or ketone supplementation in VM/Dk mice.
# FIG. 3C depicts chronic percent bodyweight changes that accompany Lipopolysaccharide after treatment with control or ketone supplementation in VM/Dk mice.
# FIG. 3D depicts the difference in bodyweight with control treatment at baseline versus each day following Lipopolysaccharide treatment.
# FIG. 3E depicts the difference in bodyweight with ketone supplement treatment at baseline versus each day following Lipopolysaccharide treatment.
# FIGS. 3A-E depict results from Weight matched animals who were administered 10 mg/kg LPS intraperitoneally. After intraperitoneal LPS injection, 4 mL/kg of water (n=4) or R/S 1,3 Butanediol Acetoacetate Diester (Ketone Diester; n=5) were intragastrically gavaged into animals one time. Bodyweight and food intake were tracked for 2 weeks post LPS administration. […] FIG. 3D-E depicts animals administered water gavage post LPS were not able to recovery to baseline bodyweight levels until 11 days post LPS administration.
smiles,measurement,setting,value
"CC(=O)CC(=O)OCCC(C)OC(=O)CC(C)=O (stereo not shown) [Ketone Diester, R/S 1,3 Butanediol Acetoacetate Diester]",Gastrocnemius catabolism/atrophy/cachexia (muscle weight / baseline bodyweight),[1],significantly attenuated
same,Quadricep catabolism/atrophy/cachexia (muscle weight / baseline bodyweight),[1],significantly attenuated
same,"anorexia (food intake, caloric intake) following LPS",[2],significantly reduced the anorexia
same,"tissue catabolism/atrophy/cachexia (bodyweight) induced by LPS, calories controlled","[3]; 10 mg/kg LPS i.p., 4 mL/kg gavage, multiple administrations, FIG. 5A-B",significantly attenuated tissue catabolism/atrophy/cachexia
same,duration for which the anti-catabolic effect was retained,[3]; following 10 mg/kg LPS intraperitoneal,≥ 2 days
same,percentage of muscle mass as a ratio of total calories consumed (Quad/Carcass/Absolute calories consumed),[4],substantially higher percentage of muscle mass compared to the amount of calories consumed
same,bodyweight versus baseline on each day following LPS,"[5]; 10 mg/kg LPS i.p., 4 mL/kg gavage, FIG. 3E (water control recovered only at 11 days)",did not significantly reduced in bodyweight
same,attenuation of tissue catabolism/atrophy/cachexia induced by LPS,"[5]; 10 mg/kg LPS i.p., 4 mL/kg intragastric gavage one time, within 1st 24 hour post LPS, FIG. 3A",46%
same,attenuation of percentage of tissue catabolism/atrophy/cachexia induced by LPS,"[5]; 10 mg/kg LPS i.p., 4 mL/kg intragastric gavage one time, within 1st 24 hours post LPS, FIG. 3B",48%
same,chronic tissue catabolism (percent bodyweight change) compared to control,"[5]; multi-weeks post-LPS administration, FIG. 3C",significantly attenuated tissue catabolism compared to control
